Test results published in patent publication US20060020004A1, “Isoxazolidine compounds for treatment of bacterial infections” (Infinity Pharmaceuticals, Inc., priority 2004, published 2006).

Key:
[1] = system: Van-intermediate E. faecalis ATCC 51299 / Van-resistant E. faecalis ATCC 700221; test: MIC determination, VIRE/VRE; format: cell-based, Enterococcus faecalis; details: ATCC 51299 / 700221, 24 h
Description: The MICs were determined using a broth micro-dilution assay in accordance with that recommended by the National Committee for Clinical Laboratory Standards (NCCLS). The final bacterial inoculate contained approximately 5×10^5 cfu/mL and the plates were incubated at 35° C. for 18 h in ambient air (Streptococci in 5% CO2). The MIC was defined as the lowest drug concentration that prevented visible growth.
(§1) Susceptibility testing for bacterial cultures is performed according to the National Council for Clinical Laboratory Standards (NCCLS) protocol M100-S12, “Performance Standards for Antimicrobial Susceptibility Testing.” The bacterial strains recommended by NCCLS were obtained from the American Type Culutre Collection (ATCC) (Table) and were maintained on Mueller Hinton (MHA) agar plates plus or minus 3% lysed horse blood (see Table). The bacteria were grown in Cation adjusted Mueller Hinton Broth (CaMHB) for liquid growth and susceptibility testing. S. cerevisiae (yeast) is grown in yeast peptone dextrose (YPD) media.
(§2) All bacterial cultures were grown at 37 degrees Celsius. Fresh colonies of S. aureus and MRSA were inoculated into liquid media and grown overnight and diluted the next day to grow to mid-log (Table 2). E. faecalis and S. pneumonia mid-log cultures were started directly from colony on plates. To attain mid-log growth, cultures were grown to an optical density (OD) at A590 of 0.2-0.8 (see Table 2) and then diluted to proper OD to obtain 5×10^5 cells/mL.
(§3) Diluted bacterial cultures are added to compound plates with compound diluted 2-fold from 100 μg/mL to 0.2 μg/mL final concentration in DMSO. Control antibiotics are also added: vancomycin, linezolid, and penicillin. In 384 well plates, 0.5 μL compound is added followed by addition of 50 μL of culture. DMSO alone is included as a control. Plates incubated at 37 degrees Celsius for 17-24 h.
(§4) Plates with cells mixed with compounds are incubated for 17 h for S. aureus and yeast, 24 h for MRSA, and all Enterococcus and Streptococcus strains. Yeast plates are incubated […].
(§5) Viability is determined by reading plates at A590 to determine optical density of treated and untreated cells and determining growth inhibition relative to controls.

[2] = system: Enterococcus faecalis ATCC 29212; test: MIC determination, E. faecalis; format: cell-based; details: ATCC 29212, 24 h
Description: as §1, §2, §3, §4, §5

[3] = system: Penicillin-res. S. pneumonia ATCC 700671; test: MIC determination, PRSP; format: cell-based, Streptococcus pneumonia; details: ATCC 700671, 24 h
Description: as §1, §2, §3, §4, §5

[4] = system: Methicillin resistant S. aureus ATCC 33591; test: MIC determination, MRSA; format: cell-based, Staphylococcus aureus; details: MRSA ATCC 33591, 24 h
Description: as §1, §2, §3, §4, §5

[5] = system: Streptococcus pneumonia ATCC 49619; test: MIC determination, S. pneumonia; format: cell-based; details: ATCC 49619, 24 h
Description: as §1, §2, §3, §4, §5

S. cerevisiae Δpdr5 = test: MIC determination, yeast; format: cell-based; details: YPD, 30 degrees Celsius
Description: as §1, §3
Yeast cultures are started from a fresh colony into YPD media and then diluted to OD of 0.002. Diluted yeast is added to compound plates as bacteria but incubated at 30 degrees Celsius for 17 h. Controls are amphotericin B and voriconazole.
as §4, §5

[6] = system: Staphylococcus aureus (Smith) ATCC 19636; test: MIC determination, S. aureus; format: cell-based; details: S. aureus ATCC 19636, 17 h
Description: as §1, §2, §3, §4, §5

Row | Structure (SMILES) | MIC VIRE/VRE [1] | MIC E. faecalis [2] | MIC PRSP [3] | MIC MRSA [4] | MIC S. pneuomiae [5] | MIC S. cerevisiae Δpdr5 (S. cerevisiae Δpdr5) | MIC S. aureus [6]
1 | CC(O)C1ON(Cc2ccc(C=Cc3ccc(Cl)cc3)cc2)C(C(=O)NCCc2c[nH]c3ccccc23)C1CO (stereo not drawn) | * (the MIC is >90 μg/mL) | *** (the MIC is less than 5 μg/mL) | ** (the MIC is 5-90 μg/mL) | *** (the MIC is less than 5 μg/mL) | ** (the MIC is 5-90 μg/mL) | * (the MIC is >90 μg/mL) | *** (the MIC is less than 5 μg/mL)
2 | CC(O)C1ON(Cc2ccc(C#Cc3ccc(Cl)cc3)cc2)C(C(=O)NCCc2c[nH]c3ccccc23)C1CO (stereo not drawn) | ** (the MIC is 5-90 μg/mL) | ** (the MIC is 5-90 μg/mL) | ** (the MIC is 5-90 μg/mL) | *** (the MIC is less than 5 μg/mL) | ** (the MIC is 5-90 μg/mL) | ** (the MIC is 5-90 μg/mL) | *** (the MIC is less than 5 μg/mL)
3 | CC(O)C1ON(Cc2cccc(C#Cc3ccc(Cl)cc3)c2)C(C(=O)NCCc2c[nH]c3ccccc23)C1CO (stereo not drawn) | ** (the MIC is 5-90 μg/mL) | ** (the MIC is 5-90 μg/mL) | ** (the MIC is 5-90 μg/mL) | *** (the MIC is less than 5 μg/mL) | ** (the MIC is 5-90 μg/mL) | ** (the MIC is 5-90 μg/mL) | *** (the MIC is less than 5 μg/mL)
4 | Cc1ccc(C#Cc2cccc(CN3OC(C(C)O)C(CO)C3C(=O)NCCc3c[nH]c4ccccc34)c2)cc1 (stereo not drawn) | ** (the MIC is 5-90 μg/mL) | ** (the MIC is 5-90 μg/mL) | ** (the MIC is 5-90 μg/mL) | *** (the MIC is less than 5 μg/mL) | ** (the MIC is 5-90 μg/mL) | ** (the MIC is 5-90 μg/mL) | *** (the MIC is less than 5 μg/mL)
5 | CC(O)C1ON(Cc2ccccc2)C(C(=O)NCCc2c[nH]c3ccccc23)C1CO (stereo not drawn) | ** (the MIC is 5-90 μg/mL) | ** (the MIC is 5-90 μg/mL) | * (the MIC is >90 μg/mL) | ** (the MIC is 5-90 μg/mL) | * (the MIC is >90 μg/mL) | ** (the MIC is 5-90 μg/mL) | ** (the MIC is 5-90 μg/mL)
6 | Cc1ccc(C#Cc2ccc(CN3OC(C(C)O)C(CO)C3C(=O)NCCc3c[nH]c4ccccc34)cc2)cc1 (stereo not drawn) [drawing 205] | ** (the MIC is 5-90 μg/mL) | ** (the MIC is 5-90 μg/mL) | ** (the MIC is 5-90 μg/mL) | *** (the MIC is less than 5 μg/mL) | ** (the MIC is 5-90 μg/mL) | ** (the MIC is 5-90 μg/mL) | *** (the MIC is less than 5 μg/mL)
